Measurements published in the supplement of paper PMC11061612.

Assays:
[1] = system: NCI-H1435 (Non-Small Cell Lung Carcinoma); assay: combination Emax (second highest fraction inhibited in the dose matrix, 72 h); higher = more inhibition; extreme values may be limits of the assay
In short: (§1)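 Bliss excess equals the observed combination effect minus the expected value EA + EB − EA·EB, where EA and EB are the effects of each agent alone. Combination Emax is the second-highest inhibition within the matrix. Inhibition was scaled from CellTiter-Glo 2.0 luminescence, with 0 set by vehicle wells and 1 by blank wells, after 72 hours of two-drug dosing of cells plated in 1536-well plates.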

[2] = system: GCIY (Gastric Carcinoma); assay: as above
In short: as §1

[3] = system: NCI-H2452 (Mesothelioma); assay: as above
In short: as §1

[4] = system: NTERA-2-cl-D1 (Other Solid Carcinomas); assay: as above
In short: as §1

[5] = system: A375 (Melanoma); assay: as above
In short: as §1

[6] = system: L-363 (Plasma Cell Myeloma); assay: as above
In short: as §1

[7] = system: NCI-H2009 (Lung Adenocarcinoma); assay: as above
In short: as §1

[8] = system: C32 (Melanoma); assay: as above
In short: as §1

[9] = system: SW1463 (Colorectal Carcinoma); assay: as above
In short: as §1

[10] = system: MDA-MB-175-VII (Breast Carcinoma); assay: as above
In short: as §1

[11] = system: NCI-H1648 (Lung Adenocarcinoma); assay: as above
In short: as §1

[12] = system: OVKATE (Ovarian Carcinoma); assay: as above
In short: as §1

[13] = system: MG-63 (Osteosarcoma); assay: as above
In short: as §1

[14] = system: SK-MEL-24 (Melanoma); assay: as above
In short: as §1

[15] = system: NCI-H2023 (Non-Small Cell Lung Carcinoma); assay: as above
In short: as §1

[16] = system: KNS-62 (Squamous Cell Lung Carcinoma); assay: as above
In short: as §1

[17] = system: SBC-3 (Small Cell Lung Carcinoma); assay: as above
In short: as §1

[18] = system: RPMI-8402 (T-Lymphoblastic Leukemia); assay: as above
In short: as §1

[19] = system: MRK-nu-1 (Breast Carcinoma); assay: as above
In short: as §1

[20] = system: NCI-H835 (Other Solid Carcinomas); assay: as above
In short: as §1

[21] = system: CAL-85-1 (Breast Carcinoma); assay: as above
In short: as §1

[22] = system: COR-L105 (Lung Adenocarcinoma); assay: as above
In short: as §1

[23] = system: BC-1 (B-Cell Non-Hodgkin's Lymphoma); assay: as above
In short: as §1

[24] = system: NCI-H1435 (Non-Small Cell Lung Carcinoma); assay: Bliss excess, mean over the matrix (fraction); higher = more synergy
In short: as §1

[25] = system: GCIY (Gastric Carcinoma); assay: as above
In short: as §1

[26] = system: NCI-H2452 (Mesothelioma); assay: as above
In short: as §1

[27] = system: NTERA-2-cl-D1 (Other Solid Carcinomas); assay: as above
In short: as §1

[28] = system: A375 (Melanoma); assay: as above
In short: as §1

[29] = system: L-363 (Plasma Cell Myeloma); assay: as above
In short: as §1

[30] = system: NCI-H2009 (Lung Adenocarcinoma); assay: as above
In short: as §1

[31] = system: C32 (Melanoma); assay: as above
In short: as §1

[32] = system: SW1463 (Colorectal Carcinoma); assay: as above
In short: as §1

[33] = system: MDA-MB-175-VII (Breast Carcinoma); assay: as above
In short: as §1

[34] = system: NCI-H1648 (Lung Adenocarcinoma); assay: as above
In short: as §1

[35] = system: OVKATE (Ovarian Carcinoma); assay: as above
In short: as §1

[36] = system: MG-63 (Osteosarcoma); assay: as above
In short: as §1

[37] = system: SK-MEL-24 (Melanoma); assay: as above
In short: as §1

[38] = system: NCI-H2023 (Non-Small Cell Lung Carcinoma); assay: as above
In short: as §1

[39] = system: KNS-62 (Squamous Cell Lung Carcinoma); assay: as above
In short: as §1

[40] = system: SBC-3 (Small Cell Lung Carcinoma); assay: as above
In short: as §1

[41] = system: RPMI-8402 (T-Lymphoblastic Leukemia); assay: as above
In short: as §1

[42] = system: MRK-nu-1 (Breast Carcinoma); assay: as above
In short: as §1

[43] = system: NCI-H835 (Other Solid Carcinomas); assay: as above
In short: as §1

[44] = system: CAL-85-1 (Breast Carcinoma); assay: as above
In short: as §1

[45] = system: COR-L105 (Lung Adenocarcinoma); assay: as above
In short: as §1

[46] = system: BC-1 (B-Cell Non-Hodgkin's Lymphoma); assay: as above
In short: as §1

For `C=CCn1c(=O)c2cnc(Nc3ccc(N4CCN(C)CC4)cc3)nc2n1-c1cccc(C(C)(C)O)n1` [AZD1775] + CCc1c2c(nc3ccc(O)cc13)-c1cc3c(c(=O)n1C2)COC(=O)[C@]3(O)CC [SN-38] (first compound max 1 µM, partner max 0.3 µM), the “combination Emax” value [1] was 0.547, the “combination Emax” value [2] was 0.756 and the “combination Emax” value [3] was 0.675. For the same compound, the “combination Emax” value [4] was 0.682, the “combination Emax” value [5] was 0.925 and the “combination Emax” value [6] was 0.903. The “combination Emax” value [7] was 0.936, the “combination Emax” value [8] was 0.69 and the “combination Emax” value [9] was 0.587. The “combination Emax” value [10] was 0.659, the “combination Emax” value [11] was 0.842 and the “combination Emax” value [12] was 0.336. The “combination Emax” value [13] was 0.968, the “combination Emax” value [14] was 0.806 and the “combination Emax” value [15] was 0.775. The “combination Emax” value [16] was 0.836, the “combination Emax” value [17] was 0.946 and the “combination Emax” value [18] was 1. For the same compound, the “combination Emax” value [19] was 0.81, the “combination Emax” value [20] was 0.668 and the “combination Emax” value [21] was 0.799. For the same compound, the “combination Emax” value [22] was 0.478, the “combination Emax” value [23] was 1 and the Bliss excess [24] was 0.0158. The Bliss excess [25] was -0.0431, the Bliss excess [26] was -0.0145 and the Bliss excess [27] was 0.0011. It also gave a Bliss excess [28] of -0.0409, a Bliss excess [29] of 0.0273 and a Bliss excess [30] of 0.0769. It also gave a Bliss excess [31] of -0.0375, a Bliss excess [32] of -0.0287 and a Bliss excess [33] of -0.0068. It also gave a Bliss excess [34] of -0.0217, a Bliss excess [35] of -0.079 and a Bliss excess [36] of -0.0239. For the same compound, the Bliss excess [37] was -0.103, the Bliss excess [38] was -0.0478 and the Bliss excess [39] was -0.0374. The Bliss excess [40] was -0.0297, the Bliss excess [41] was 0.0012 and the Bliss excess [42] was 0.0275. It also gave a Bliss excess [43] of -0.0442, a Bliss excess [44] of -0.0337 and a Bliss excess [45] of -0.0262. It also gave a Bliss excess [46] of -0.0252.
In the case of `CN(CCO)CC[C@H](CSc1ccccc1)Nc1ccc(S(=O)(=O)NC(=O)c2ccc(N3CCC([C@@H](O)c4ccccc4-c4ccc(Cl)cc4)CC3)cc2)cc1S(=O)(=O)C(F)(F)F` [AZD4320] + Nc1ccn([C@@H]2O[C@H](CO)[C@@H](O)C2(F)F)c(=O)n1 [Gemcitabine] (first compound max 1 µM, 7x7, partner max 0.3 µM), the “combination Emax” value [1] is reported as 0.823, the “combination Emax” value [2] is reported as 0.782 and the “combination Emax” value [3] is reported as 0.355. For the same compound, the “combination Emax” value [4] was 0.663, the “combination Emax” value [5] was 0.996 and the “combination Emax” value [6] was 0.458. The “combination Emax” value [7] was 0.505, the “combination Emax” value [8] was 0.805 and the “combination Emax” value [9] was 0.455. The “combination Emax” value [10] was 0.824, the “combination Emax” value [11] was 0.49 and the “combination Emax” value [12] was 0.246. The “combination Emax” value [13] was 0.973, the “combination Emax” value [14] was 0.901 and the “combination Emax” value [15] was 0.884. For the same compound, the “combination Emax” value [16] was 0.595, the “combination Emax” value [17] was 1 and the “combination Emax” value [18] was 1. The “combination Emax” value [19] was 0.892, the “combination Emax” value [20] was 0.966 and the “combination Emax” value [21] was 0.702. For the same compound, the “combination Emax” value [22] was 0.514, the “combination Emax” value [23] was 0.974 and the Bliss excess [24] was -0.0344. The Bliss excess [25] was -0.0151, the Bliss excess [26] was -0.0035 and the Bliss excess [27] was -0.0239. For the same compound, the Bliss excess [28] was 0.0047, the Bliss excess [29] was 0.0563 and the Bliss excess [30] was -0.013. The Bliss excess [31] was 0.0027, the Bliss excess [32] was -0.0192 and the Bliss excess [33] was 0.125. For the same compound, the Bliss excess [34] was -0.0274, the Bliss excess [35] was -0.0542 and the Bliss excess [36] was 0.0293. For the same compound, the Bliss excess [37] was -0.0082, the Bliss excess [38] was 0.0338 and the Bliss excess [39] was -0.0024. For the same compound, the Bliss excess [40] was 0.0194, the Bliss excess [41] was -0.0457 and the Bliss excess [42] was 0.0117. It also gave a Bliss excess [43] of 0.0682, a Bliss excess [44] of -0.0055 and a Bliss excess [45] of -0.0111. The Bliss excess [46] was -0.0074.
